Test results: PubChem BioAssay AID248 (DTP/NCI, 2004)
“And” between values parts separate entries of the source, which are not always exact repeats. Identical values can stand only once. Inconclusive results and toxic doses are left out. Cut-off read from the data, not from the text of the source: active = T/C of 150% or more; inactive = T/C below 125%.

Tested on: L1210 leukemia ip in BDF1 mice, survival T/C
Assay: NCI In Vivo Anticancer Drug Screen. Data for tumor model L1210 Leukemia (intraperitoneal) in B6D2F1 (BDF1) mice
Conditions: endpoint: mean survival time, higher = longer survival
Outline: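 Ratio derived from survival: compound-dosed mice over vehicle-dosed mice, all bearing a transplantable tumor.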

[1] = dose: 100.0 mg/kg/injection, schedule: Q01DX001 (ip), vehicle: saline
[2] = dose: 200.0 mg/kg/injection, schedule: Q01DX001 (ip), vehicle: saline
[3] = dose: 400.0 mg/kg/injection, schedule: Q01DX001 (ip), vehicle: saline
[4] = dose: 100.0 mg/kg/injection, schedule: Q01DX009 (ip), vehicle: Klucel (hydroxypropylcellulose) (HPC)
[5] = dose: 100.0 mg/kg/injection, schedule: Q04DX003 (ip), vehicle: Klucel (hydroxypropylcellulose) (HPC)
[6] = dose: 200.0 mg/kg/injection, schedule: Q01DX009 (ip), vehicle: Klucel (hydroxypropylcellulose) (HPC)
[7] = dose: 200.0 mg/kg/injection, schedule: Q04DX003 (ip), vehicle: Klucel (hydroxypropylcellulose) (HPC)
[8] = dose: 400.0 mg/kg/injection, schedule: Q01DX009 (ip), vehicle: Klucel (hydroxypropylcellulose) (HPC)
[9] = dose: 400.0 mg/kg/injection, schedule: Q04DX003 (ip), vehicle: Klucel (hydroxypropylcellulose) (HPC)
[10] = dose: 100.0 mg/kg/injection, schedule: Q04DX002 (ip), vehicle: Klucel (hydroxypropylcellulose) (HPC)
[11] = dose: 200.0 mg/kg/injection, schedule: Q04DX002 (ip), vehicle: Klucel (hydroxypropylcellulose) (HPC)
[12] = dose: 400.0 mg/kg/injection, schedule: Q04DX002 (ip), vehicle: Klucel (hydroxypropylcellulose) (HPC)

Measured: T/C

Nc1cccn2cnnc12
inactive: [1] 103 % of control | [2] 101 % of control | [3] 97 % of control

CCC(CC)N(C)C(C)(C)CO
inactive: dose: 100.0 mg/kg/injection, schedule: Q04DX003 (ip), vehicle: saline sonified 90 % of control | dose: 200.0 mg/kg/injection, schedule: Q04DX003 (ip), vehicle: saline sonified 87 % of control

CC1CCCN(c2ccc([N+](=O)[O-])cc2[N+](=O)[O-])C1 (stereo not given)
inactive: [4] 105 % of control | [5] 99 % of control | [6] 96 % of control | [7] 92 % of control | [8] 99 % of control | [9] 97 % of control

C=CC(=O)NCNC(C)C (tested in a mixture with another compound)
inactive: dose: 12.5 mg/kg/injection, schedule: Q01DX009 (ip), vehicle: Klucel (hydroxypropylcellulose) (HPC) 97 % of control | dose: 12.5 mg/kg/injection, schedule: Q01DX009 (ip), vehicle: saline 100 % of control and 93 % of control | dose: 25.0 mg/kg/injection, schedule: Q01DX009 (ip), vehicle: Klucel (hydroxypropylcellulose) (HPC) 97 % of control | dose: 25.0 mg/kg/injection, schedule: Q01DX009 (ip), vehicle: saline 95 % of control | dose: 50.0 mg/kg/injection, schedule: Q01DX009 (ip), vehicle: Klucel (hydroxypropylcellulose) (HPC) 90 % of control | dose: 50.0 mg/kg/injection, schedule: Q01DX009 (ip), vehicle: saline 100 % of control

CC1=CC(C)C(=O)N(CC(C)N2CCCC2)C(C)=C1 (stereo not given)
inactive: dose: 75.0 mg/kg/injection, schedule: Q01DX001 (ip), vehicle: carboxymethylcellulose (CMC) 102 % of control

O=C(Nc1ccccc1)OC1CCCC2CCC21 (stereo not given)
inactive: [1] 97 % of control | [2] 90 % of control | [3] 90 % of control

CC(C)(C)C(=O)CN1C(=O)c2ccccc2C1=O
inactive: dose: 100.0 mg/kg/injection, schedule: Q01DX001 (ip), vehicle: Klucel (hydroxypropylcellulose) (HPC) 108 % of control | [4] 96 % of control and 97 % of control | [10] 101 % of control and 103 % of control | [5] 101 % of control | dose: 200.0 mg/kg/injection, schedule: Q01DX001 (ip), vehicle: Klucel (hydroxypropylcellulose) (HPC) 112 % of control | [6] 96 % of control and 104 % of control | [11] 98 % of control and 103 % of control | [7] 95 % of control | dose: 400.0 mg/kg/injection, schedule: Q01DX001 (ip), vehicle: Klucel (hydroxypropylcellulose) (HPC) 118 % of control | [8] 97 % of control and 108 % of control | [12] 103 % of control and 109 % of control | [9] 103 % of control

Nc1ccccc1SCc1ccccc1
inactive: dose: 100.0 mg/kg/injection, schedule: Q04DX003 (ip), vehicle: saline with Tween-80 101 % of control | dose: 200.0 mg/kg/injection, schedule: Q04DX003 (ip), vehicle: saline with Tween-80 96 % of control | dose: 400.0 mg/kg/injection, schedule: Q04DX003 (ip), vehicle: saline with Tween-80 98 % of control

CCOC(=O)CSC#N
inactive: [1] 101 % of control | [10] 95 % of control | [2] 101 % of control | [11] 91 % of control | [3] 95 % of control | [12] 107 % of control

OC1C=NC=N1 (stereo not given)
inactive: dose: 100.0 mg/kg/injection, schedule: Q04DX003 (ip), vehicle: saline 92 % of control | dose: 200.0 mg/kg/injection, schedule: Q04DX003 (ip), vehicle: saline 109 % of control | dose: 400.0 mg/kg/injection, schedule: Q04DX003 (ip), vehicle: saline 95 % of control
